Measured values taken from US20240158446A1, “CYCLIC COMPOUND HAVING SELECTIVE INHIBITORY ACTION ON KRAS OVER HRAS AND NRAS” (CHUGAI SEIYAKU KABUSHIKI KAISHA, priority 2021, published 2024).
Like-named read-outs stand apart in the source and are kept apart here. Where a SMILES comes first, the peptide text is derived from it. Bridges are numbered along the chain shown (N, C = ends). [ ]: non-standard residue; d: D form. The star is where a group is joined. hPhe(3-Cl-4-CF3) = N[C@@H](CCc1ccc(C(F)(F)F)c(Cl)c1)C(=O)O; NPrPhe(4-CF3) = CCCN[C@@H](Cc1ccc(C(F)(F)F)cc1)C(=O)O; NMeGly(cPent) = CN[C@H](C(=O)O)C1CCCC1; NMeD = CN[C@@H](CC(=O)O)C(=O)O; NMeL = CN[C@@H](CC(C)C)C(=O)O; Morpholide = C1CN(*)CCO1; Ac4c = NC1(C(=O)O)CCC1; NEtG = CCNCC(=O)O; Sar = CNCC(=O)O

Assays:
[1] = target: GDP-bound KRAS wild-type protein (Homo sapiens, UniProt P01116); assay: Binding to KRAS by surface plasmon resonance (SPR), Single Cycle Kinetics; settings: GDP-bound KRAS wild-type protein, read-out: KRAS KD
[2] = target: GDP-bound NRAS wild-type protein (Homo sapiens, UniProt P01111); assay: Binding to NRAS by surface plasmon resonance (SPR), Single Cycle Kinetics; settings: for NRAS/KRAS (ratio of KD value for NRAS to KD value for KRAS): GDP-bound NRAS wild-type protein vs GDP-bound KRAS wild-type protein; for NRAS/KRAS (ratio of KD value with respect to GDP-bound NRAS wild-type protein to KD value with respect to KRAS): SPR KD ratio NRAS/KRAS, class symbols
[3] = target: GDP-bound HRAS wild-type protein (Homo sapiens, UniProt P01112); assay: Binding to HRAS by surface plasmon resonance (SPR), Single Cycle Kinetics; settings: for HRAS/KRAS (ratio of KD value for HRAS to KD value for KRAS): GDP-bound HRAS wild-type protein vs GDP-bound KRAS wild-type protein; for HRAS/KRAS (ratio of KD value with respect to GDP-bound HRAS wild-type protein to KD value with respect to KRAS): SPR KD ratio HRAS/KRAS, class symbols
[4] = system: human lung cancer strain NCI-H441;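 further: cell proliferation inhibition after four days measured by CellTiter-Glo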
[5] = SPR, Single Cycle Kinetics, 1:1 binding model
[6] = SPR Single Cycle Kinetics, 1:1 binding model

GDP-bound NRAS wild-type protein, sequence (P01111 whole entry): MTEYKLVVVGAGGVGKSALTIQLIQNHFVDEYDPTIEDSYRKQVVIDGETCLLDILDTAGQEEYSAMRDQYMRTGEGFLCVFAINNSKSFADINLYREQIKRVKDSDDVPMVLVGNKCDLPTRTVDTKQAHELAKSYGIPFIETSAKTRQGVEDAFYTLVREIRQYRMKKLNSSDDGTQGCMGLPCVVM
GDP-bound HRAS wild-type protein, sequence (P01112 whole entry): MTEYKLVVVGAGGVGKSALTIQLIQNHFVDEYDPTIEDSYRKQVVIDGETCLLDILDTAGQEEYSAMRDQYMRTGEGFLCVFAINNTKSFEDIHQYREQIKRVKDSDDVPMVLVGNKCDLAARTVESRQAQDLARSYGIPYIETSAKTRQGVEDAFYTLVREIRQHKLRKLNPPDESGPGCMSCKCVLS
GDP-bound KRAS wild-type protein, sequence (P01116 whole entry): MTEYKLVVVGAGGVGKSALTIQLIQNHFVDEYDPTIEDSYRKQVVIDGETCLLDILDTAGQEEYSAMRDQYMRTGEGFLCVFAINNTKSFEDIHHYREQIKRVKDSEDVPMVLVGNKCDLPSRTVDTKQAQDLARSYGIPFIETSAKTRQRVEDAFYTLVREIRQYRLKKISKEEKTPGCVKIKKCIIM

SMILES: CCOC[C@H]1C(=O)N[C@@H]([C@@H](C)CC)C(=O)N(C)CC(=O)N(C)[C@H]2C/C=C\CCN(C2=O)[C@@H](CC2CCC(F)(F)CC2)C(=O)N(C)CC(=O)N[C@@H](CCc2ccc(C(F)(F)F)c(OC)c2)C(=O)N2C[C@H](OCC)C[C@H]2C(=O)NC2(CC(C)(C)C2)C(=O)N(C)[C@@H](C(CC)CC)C(=O)N(C)[C@H](C(=O)N(C)C)CC(=O)N1C [PP2446]
- Kd ([1]; SPR, Single Cycle Kinetics): 0.81 nM
- NRAS/KRAS (ratio of KD value for NRAS to KD value for KRAS) ([2]; SPR): A (a compound having 10 or more and less than 20 is denoted as A)
- HRAS/KRAS (ratio of KD value for HRAS to KD value for KRAS) ([3]; SPR): A (a compound having 10 or more and less than 20 is denoted as A)
- IC50 [4]: 124 nM

SMILES: CCO[C@@H]1C[C@H]2C(=O)NC3(CCC3)C(=O)N(C)[C@@H](C3CCCC3)C(=O)N(C)[C@H](C(=O)N(C)C)CC(=O)N(C)[C@@H](Cc3cccc(C#N)c3)C(=O)N[C@@H]([C@@H](C)CC)C(=O)N(C)CC(=O)N(C)[C@H]3CCCCCN(C3=O)[C@@H](Cc3ccc(C(F)(F)F)cc3)C(=O)N(C)CC(=O)N[C@@H](CCc3cc(F)c(C(F)(F)F)c(F)c3)C(=O)N2C1 [PP1172]
- Kd ([1]; SPR, Single Cycle Kinetics): 0.17 nM
- NRAS/KRAS (ratio of KD value for NRAS to KD value for KRAS) ([2]; SPR): B (a compound having 3 or more and less than 10 is denoted as B)
- HRAS/KRAS (ratio of KD value for HRAS to KD value for KRAS) ([3]; SPR): B (a compound having 3 or more and less than 10 is denoted as B)
- IC50 [4]: 48.3 nM

SMILES: CCC[C@H]1C(=O)N[C@@H]([C@@H](C)CC)C(=O)N2CCC[C@H]2C(=O)N(C)[C@H]2C/C=C\CCN(C2=O)[C@@H](Cc2ccc(C(F)(F)F)cc2)C(=O)N(C)CC(=O)N[C@@H](CCc2ccc(C(F)(F)F)c(OC)c2)C(=O)N2C[C@@H](C)C[C@H]2C(=O)N(C)C2(CCC2)C(=O)N(C)[C@@H](C2CCCC2)C(=O)N(C)[C@H](C(=O)N(C)C)CC(=O)N1C [PP2362]
- Kd ([1]; SPR, Single Cycle Kinetics): 0.076 nM
- NRAS/KRAS (ratio of KD value for NRAS to KD value for KRAS) ([2]; SPR): A (a compound having 10 or more and less than 20 is denoted as A)
- HRAS/KRAS (ratio of KD value for HRAS to KD value for KRAS) ([3]; SPR): A (a compound having 10 or more and less than 20 is denoted as A)
- IC50 [4]: 4.8 nM

SMILES: CCO[C@@H]1C[C@H]2C(=O)NC3(CCC3)C(=O)N(C)[C@@H](C3CCCC3)C(=O)N(C)[C@H](C(=O)N(C)C)CC(=O)N(C)[C@@H](CC3CCC3)C(=O)N[C@@H]([C@@H](C)CC)C(=O)N(C)CC(=O)N(C)[C@H]3C/C=C\CCN(C3=O)[C@@H](CC3CCC(F)(F)CC3)C(=O)N(C)CC(=O)N[C@@H](CCc3cc(F)c(C(F)(F)F)c(F)c3)C(=O)N2C1 [PP1455, (2S,8S,12R,14S,20S,23S,27S,30S,36S,38Z)-27-(cyclobutylmethyl)-20-cyclopentyl-2-[(4,4-difluorocyclohexyl)methyl]-8-[2-[3,5-difluoro-4-(trifluoromethyl)phenyl]ethyl]-12-ethoxy-N,N,4,19,22,26,32,35-octamethyl-30-[(1S)-1-methylpropyl]-3,6,9,15,18,21,25,28,31,34,42-undecaoxo-spiro[1,4,7,10,16,19,22,26,29,32,35-undecazatricyclo[34.5.1.0^10,14]dotetracont-38-ene-17,1′-cyclobutane]-23-carboxamide]
- Kd [1, 5]: 0.11 nM
- NRAS/KRAS (ratio of KD value for NRAS to KD value for KRAS) ([2]; SPR, KD ratio class): A (a compound having 10 or more and less than 20 is denoted as A)
- HRAS/KRAS (ratio of KD value for HRAS to KD value for KRAS) ([3]; SPR, KD ratio class): A (a compound having 10 or more and less than 20 is denoted as A)
- IC50 [4]: 13.4 nM

SMILES: C#CCN1CC(=O)N(C)[C@H]2C/C=C\CCN(C2=O)[C@@H](Cc2ccc(C)cc2)C(=O)N(C)CC(=O)N[C@@H](CCc2cc(F)c(C(F)(F)F)c(F)c2)C(=O)N2C[C@H](OCC)C[C@H]2C(=O)NC2(CC(C)(C)C2)C(=O)N(C)[C@@H](C2CCCC2)C(=O)N(C)[C@H](C(=O)N(C)C)CC(=O)N(C)[C@@H](CCC)C(=O)N[C@@H](CC(C)C)C1=O [PP2512]
- Kd ([1]; SPR, Single Cycle Kinetics): 2 nM
- NRAS/KRAS (ratio of KD value for NRAS to KD value for KRAS) ([2]; SPR): A (a compound having 10 or more and less than 20 is denoted as A)
- HRAS/KRAS (ratio of KD value for HRAS to KD value for KRAS) ([3]; SPR): A (a compound having 10 or more and less than 20 is denoted as A)
- IC50 [4]: 109 nM

SMILES: CCCN1C(=O)CN(CC)C(=O)CN(C)C(=O)[C@H]([C@@H](C)CC)NC(=O)[C@H](CC(C)C)N(C)C(=O)C[C@@H](C(=O)N2CCOCC2)N(C)C(=O)[C@H](C2CCCC2)N(C)C(=O)C2(CCC2)NC(=O)[C@@H]2CCCN2C(=O)[C@H](CCc2ccc(C(F)(F)F)c(Cl)c2)NC(=O)CN(C)C(=O)[C@@H]1Cc1ccc(C(F)(F)F)cc1 [PP1948] ([NMeL]I[Sar][NEtG][NPrPhe(4-CF3)][Sar][hPhe(3-Cl-4-CF3)]P[Ac4c][NMeGly(cPent)][NMeD]-Morpholide; lactam N-11)
- Kd ([1]; SPR, Single Cycle Kinetics): 0.41 nM
- NRAS/KRAS (KD ratio) ([2]; ratio of KD for GDP-bound NRAS wild-type protein to KD for KRAS, SPR): C (A compound having a KD ratio of 0.1 or more and less than 3 is denoted as C)
- HRAS/KRAS (KD ratio) ([3]; ratio of KD for GDP-bound HRAS wild-type protein to KD for KRAS, SPR): C (A compound having a KD ratio of 0.1 or more and less than 3 is denoted as C)
- IC50 ([4]; read-out: NCI-H441 IC50, NCI-H441 cell proliferation, 4 days, CellTiter-Glo): 16.2 nM

SMILES: CCC(CC)[C@H]1C(=O)N(C)[C@H](C(=O)N(C)C)CC(=O)N(C)[C@@H](COC)C(=O)N[C@@H]([C@@H](C)CC)C(=O)N2CCC[C@H]2C(=O)N(C)[C@H]2C/C=C\CCN(C2=O)[C@@H](Cc2ccc(C(F)F)cc2)C(=O)N(C)CC(=O)N[C@@H](CCc2ccc(Cl)c(Cl)c2)C(=O)N2C[C@H](OC3CCCC3)C[C@H]2C(=O)NC2(CC(C)(C)C2)C(=O)N1C [PP2652]
- Kd [1, 6]: 1.5 nM
- NRAS/KRAS (ratio of KD value with respect to GDP-bound NRAS wild-type protein to KD value with respect to KRAS) [2]: AA (a compound having 20 or more is denoted as AA)
- HRAS/KRAS (ratio of KD value with respect to GDP-bound HRAS wild-type protein to KD value with respect to KRAS) [3]: A (a compound having 10 or more and less than 20 is denoted as A)
- IC50 [4]: 82.7 nM

SMILES: CC[C@H](C)[C@@H]1NC(=O)[C@H](COC)N(C)C(=O)C[C@@H](C(=O)N2CCCCC2)N(C)C(=O)[C@H](C2CCCC2)N(C)C(=O)C2(CC(C)(C)C2)NC(=O)[C@@H]2C[C@@H](OC3CCCC3)CN2C(=O)[C@H](CCc2cc(F)c(C(F)(F)F)c(F)c2)NC(=O)CN(C)C(=O)[C@H](Cc2ccc(C(F)(F)F)cc2)N2CC/C=C\C[C@@H](C2=O)N(C)C(=O)CN(C)C1=O [PP2665]
- Kd [1, 6]: 0.56 nM
- NRAS/KRAS (ratio of KD value with respect to GDP-bound NRAS wild-type protein to KD value with respect to KRAS) [2]: A (a compound having 10 or more and less than 20 is denoted as A)
- HRAS/KRAS (ratio of KD value with respect to GDP-bound HRAS wild-type protein to KD value with respect to KRAS) [3]: A (a compound having 10 or more and less than 20 is denoted as A)
- IC50 [4]: 23.4 nM

SMILES: CCC[C@H]1C(=O)N[C@@H]([C@@H](C)CC)C(=O)N(C)CC(=O)N(C)[C@H]2C/C=C\CCN(C2=O)[C@@H](Cc2ccc(C(F)(F)F)cc2)C(=O)N(C)CC(=O)N[C@@H](CCc2cc(F)c(C(F)(F)F)c(F)c2)C(=O)N2C[C@H](OCC)C[C@H]2C(=O)NC2(CCC2)C(=O)N(C)[C@@H](C2CCCC2)C(=O)N(C)[C@H](C(=O)N2CCCCC2)CC(=O)N1C [PP1294]
- Kd [1, 5]: 0.29 nM
- NRAS/KRAS (ratio of KD value for NRAS to KD value for KRAS) ([2]; SPR, KD ratio class): A (a compound having 10 or more and less than 20 is denoted as A)
- HRAS/KRAS (ratio of KD value for HRAS to KD value for KRAS) ([3]; SPR, KD ratio class): A (a compound having 10 or more and less than 20 is denoted as A)
- IC50 [4]: 10 nM

SMILES: CCO[C@@H]1C[C@H]2C(=O)NC3(CCC3)C(=O)N(C)[C@@H](C3CCCC3)C(=O)N(C)[C@H](C(=O)N(C)C)CC(=O)N(C)[C@@H](CC(C)(C)C)C(=O)N[C@@H]([C@@H](C)CC)C(=O)N(C)CC(=O)N(C)[C@H]3C/C=C\CCN(C3=O)[C@@H](CC3CCC(F)(F)CC3)C(=O)N(C)CC(=O)N[C@@H](CCc3cc(F)c(C(F)(F)F)c(F)c3)C(=O)N2C1 [PP1460]
- Kd [1, 5]: 0.23 nM
- NRAS/KRAS (ratio of KD value for NRAS to KD value for KRAS) ([2]; SPR, KD ratio class): A (a compound having 10 or more and less than 20 is denoted as A)
- HRAS/KRAS (ratio of KD value for HRAS to KD value for KRAS) ([3]; SPR, KD ratio class): A (a compound having 10 or more and less than 20 is denoted as A)
- IC50 [4]: 32.9 nM

SMILES: CCO[C@@H]1C[C@H]2C(=O)NC3(CCCC3)C(=O)N(C)[C@@H](C3CCCC3)C(=O)N(C)[C@H](C(=O)N(C)C)CC(=O)N(C)[C@@H](CC)C(=O)N[C@@H]([C@@H](C)CC)C(=O)N(C)CC(=O)N(C)[C@H]3CC[C@@H](C)CN(C3=O)[C@@H](Cc3ccc(C(F)(F)F)cc3)C(=O)N(C)CC(=O)N[C@@H](CCc3ccc(C(F)(F)F)c(Cl)c3)C(=O)N2C1 [PP1376]
- Kd [1, 5]: 0.037 nM
- NRAS/KRAS (ratio of KD value for NRAS to KD value for KRAS) ([2]; SPR, KD ratio class): B (a compound having 3 or more and less than 10 is denoted as B)
- HRAS/KRAS (ratio of KD value for HRAS to KD value for KRAS) ([3]; SPR, KD ratio class): B (a compound having 3 or more and less than 10 is denoted as B)
- IC50 [4]: 3.5 nM
